Experimental data taken from patent US20150335719A1, “Intravitreal Injection of a Chimeric Phage Endolysin Ply187; Protection from Staphylococcus aureus Endophthalmitis” (priority 2014, published 2015).

Tests used:
S. aureus strain RN6390 = experiment: Resistance development assay by repeated exposure in an MIC assay; assay type: cell-based, Staphylococcus aureus; details: RN6390, up to 10 rounds of exposure
Description: Error bars represent SEM for three independent experiments performed in triplicates. […] Cells surviving at half (½) of the MIC value were used as an inoculum for each subsequent round of exposure. The change in susceptibility is recorded and presented as fold change resistance from day 1 to 10 of exposure and also after 5 days of growth (without any selection pressure) following the 10th day (represented as 10+5). The data represent means±SEM of two independent experiments performed in triplicate.
To verify and quantify the lytic activity against live S. aureus, we have tested Ply187AN-KSH3b in the Turbidity Reduction Assay. The turbidity assay measures the drop in optical density (OD) resulting from lysis of the target bacteria with the phage endolysin-derived protein. Turbidity reduction assays by chimeric Ply187AN-KSH3b were performed in a 96 well plate as described previously by Becker et al. (2009a, 2009b, supra). Briefly, S. aureus strains/isolates RN6390, USA 300, and clinical isolates R2932, R2952 and R3000 were grown to logarithmic phase (OD600 0.4-0.6) at 37° C. in tryptic Soy broth (TSB). The culture was harvested by centrifugation and the pellet was resuspended in assay buffer (400 mM NaCl, 20 mM Tris HCl, 1% glycerol, pH 7.5). Bacterial cultures (100 μl/well) were mixed with 100 μl of (as per MIC) of chimeric Ply187AN-KSH3b protein diluted in the same assay buffer. The reduction in the turbidity was measured after every 5 min up to 1 h using a micro plate reader. EB diluted in the same assay buffer (without chimeric Ply187AN-KSH3b protein) was used as a control (EB C). Resistance development against chimeric Ply187AN-KSH3b was tested using repeated exposure in an MIC assay as described by Rodriguez-Rubio and co-workers (Rodriguez-Rubio et al., PLoS One 8:e64671.). In brief, bacterial cultures (10^5 CFU/well) were exposed overnight to a 2-fold serial dilution of chimeric Ply187AN-KSH3b, lysostaphin, and gentamicin, where the latter serve as controls. […]

[1] = system: S. aureus (strain RN6390, USA 300, R 2932, R 2952, R 3000) biofilms; experiment: Biofilm disruption (Live/Dead BacLight staining and CFU count); assay type: cell-based, Staphylococcus aureus; details: 24 h biofilms treated for 30 min
Description: FIGS. 2A-2E depicts the biofilm disruption activity of chimeric Ply187AN-KSH3b. In FIG. 2A-2E, either chimeric Ply187AN-KSH3b or EB (EB C) or Gentamicin (for MDR/MRSA strains/isolates) was applied to cover slips containing S. aureus RN6390 (FIG. 2A), USA 300 (FIG. 2B), R 2932 (FIG. 2C), R 2952 (FIG. 2D) and R3000 (FIG. 2E) biofilms for 30 min. Bacterial killing was assessed via Live/Dead™ staining and subsequent fluorescence microscopy. FIG. 2F depicts the viability of biofilm associated bacteria enumerated by CFU count. Error bars represent the mean±SEM of two independent experiments performed in triplicate.
Biofilm disruption by the chimeric Ply187AN-KSH3b was observed using Live/Dead BacLight™ staining which takes advantage of SYTO™ 9, a green-fluorescent nucleic acid stain and propidium iodide that fluoresces red. SYTO™ 9 labels a bacterial population with an intact membrane and fluoresces green. In contrast, propidium iodide penetrates bacteria with damaged membranes and fluoresces red. Briefly, static biofilms of S. aureus (strain RN6390, USA 300, R 2932, R 2952, R 3000) were grown on glass cover slips in 6 well tissue culture plates in fresh TSB media seeded with S. aureus. After incubation at 37° C. for 24 h, the biofilms were treated for an additional 30 min with chimeric Ply187AN-KSH3b (as per MIC) diluted in EB or with EB/gentamicin alone. The biofilms were then stained with the Live/Dead BacLight™ bacterial viability kit (Invitrogen, Carlsbad, Calif.), per manufacturer's instruction. The cover slips were washed three times with PBS to remove excess stain and cell debris, mounted with mounting oil on a glass slide, and examined with an Eclipse 90i fluorescence microscope (Nikon, Melville, N.Y.).

Substance | fold change in resistance (S. aureus strain RN6390) [fold] | biofilm disruption by Live/Dead staining [1]
gentamicin [reference compound] | 16 | green fluorescence
lysostaphin | 128 | 
